Measurements: ChEMBL document CHEMBL1201862, “PubChem BioAssay data set” (2004)
The source made the active and inactive calls.

Tests used:
cells = type: functional
[1] = molecular target: T1, Polyadenylate-binding protein 1 (Homo sapiens, UniProt P11940); assay: PABP1 MLLE–PAM2 interaction inhibitors, dose response, miRNA deadenylation inhibitor project, biochemical, fluorescence polarization, Cy5-PAM2 peptide, secondary (AID 602260); type: functional; details: read-out: IC50_Mean
[2] = molecular target: T1, Polyadenylate-binding protein 1; assay: PABP1 MLLE–PAM2 binding inhibitor potency, dose response, biochemical, fluorescence polarization, FITC-PAM2 peptide (AID 602259); type: functional; details: read-out: IC50_Mean
[3] = molecular target: FAD-linked sulfhydryl oxidase ALR (Homo sapiens, UniProt P55789); assay: inhibitors of human ALR sulfhydryl oxidase, dose response, biochemical, H2O2 detection, luminescence, cherry-pick (AID 493248)
FAD-linked sulfhydryl oxidase ALR, sequence (P55789 whole entry): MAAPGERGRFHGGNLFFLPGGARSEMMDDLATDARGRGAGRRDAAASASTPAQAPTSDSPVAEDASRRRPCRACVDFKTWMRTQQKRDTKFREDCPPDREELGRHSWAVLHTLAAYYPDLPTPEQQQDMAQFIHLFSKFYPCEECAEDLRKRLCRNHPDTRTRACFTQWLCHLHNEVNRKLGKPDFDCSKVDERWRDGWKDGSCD

[4] = molecular target: T2, Replicative DNA helicase DnaB (Mycobacterium tuberculosis, UniProt P9WMR3); assay: DnaB intein splicing inhibitors, dose response, biochemical, cell-free fluorescence (AID 449749); type: functional
T2 sequence (P9WMR3 whole entry): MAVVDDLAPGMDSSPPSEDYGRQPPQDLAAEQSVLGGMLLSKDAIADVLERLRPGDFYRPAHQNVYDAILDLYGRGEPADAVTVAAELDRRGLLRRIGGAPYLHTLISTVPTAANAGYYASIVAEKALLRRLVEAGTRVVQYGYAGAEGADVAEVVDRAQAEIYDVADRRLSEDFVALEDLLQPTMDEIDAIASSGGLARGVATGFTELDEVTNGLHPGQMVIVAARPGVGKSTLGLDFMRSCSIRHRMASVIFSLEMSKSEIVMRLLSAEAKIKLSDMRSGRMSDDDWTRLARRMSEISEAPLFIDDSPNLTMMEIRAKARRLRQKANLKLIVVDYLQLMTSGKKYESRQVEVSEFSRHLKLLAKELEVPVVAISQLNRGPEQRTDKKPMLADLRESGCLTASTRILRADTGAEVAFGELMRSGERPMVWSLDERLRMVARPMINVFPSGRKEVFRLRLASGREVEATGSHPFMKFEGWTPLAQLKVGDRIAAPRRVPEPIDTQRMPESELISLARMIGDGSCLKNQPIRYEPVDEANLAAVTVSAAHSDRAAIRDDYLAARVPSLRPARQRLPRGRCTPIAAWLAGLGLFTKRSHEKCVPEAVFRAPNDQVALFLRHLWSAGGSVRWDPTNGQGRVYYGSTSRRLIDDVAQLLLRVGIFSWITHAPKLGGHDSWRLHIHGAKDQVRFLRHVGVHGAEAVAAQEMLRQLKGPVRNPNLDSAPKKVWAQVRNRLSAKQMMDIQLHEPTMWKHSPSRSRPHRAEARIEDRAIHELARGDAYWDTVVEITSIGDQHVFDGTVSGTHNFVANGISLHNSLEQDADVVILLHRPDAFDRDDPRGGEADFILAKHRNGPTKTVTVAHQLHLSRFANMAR

[5] = molecular target: T3, High affinity choline transporter 1 (Homo sapiens, UniProt Q9GZV3); assay: CHT inhibitors, dose response, cell-based, 5-point CRC, membrane potential dye (AID 504840); type: functional
T3 sequence (Q9GZV3 whole entry): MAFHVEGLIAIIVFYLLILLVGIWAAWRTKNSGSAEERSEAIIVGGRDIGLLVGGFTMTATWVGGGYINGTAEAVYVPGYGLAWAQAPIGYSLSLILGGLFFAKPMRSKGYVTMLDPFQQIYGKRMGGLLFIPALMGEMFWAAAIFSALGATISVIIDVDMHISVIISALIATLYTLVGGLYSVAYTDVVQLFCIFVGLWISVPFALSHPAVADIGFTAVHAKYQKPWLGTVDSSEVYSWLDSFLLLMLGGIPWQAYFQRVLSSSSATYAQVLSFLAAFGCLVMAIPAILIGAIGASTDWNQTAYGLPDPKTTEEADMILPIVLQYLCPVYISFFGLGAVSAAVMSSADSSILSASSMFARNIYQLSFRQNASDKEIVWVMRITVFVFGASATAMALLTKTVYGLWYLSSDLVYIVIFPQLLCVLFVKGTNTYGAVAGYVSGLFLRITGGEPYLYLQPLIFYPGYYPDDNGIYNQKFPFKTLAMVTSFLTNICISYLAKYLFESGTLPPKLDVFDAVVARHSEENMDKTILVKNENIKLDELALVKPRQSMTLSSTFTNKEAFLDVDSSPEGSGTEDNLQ

Protein RecA = molecular target: T4, Protein RecA (Mycobacterium tuberculosis, UniProt P9WHJ3); assay: Fluorescence Cell-Free Homogeneous Dose Retest to Identify Inhibitors of RecA-Intein Splicing Activity. [Related pubchem assays (depositor defined):AID2097, AID2223, AID489010, AID492950]; type: functional
T4 sequence (P9WHJ3 whole entry): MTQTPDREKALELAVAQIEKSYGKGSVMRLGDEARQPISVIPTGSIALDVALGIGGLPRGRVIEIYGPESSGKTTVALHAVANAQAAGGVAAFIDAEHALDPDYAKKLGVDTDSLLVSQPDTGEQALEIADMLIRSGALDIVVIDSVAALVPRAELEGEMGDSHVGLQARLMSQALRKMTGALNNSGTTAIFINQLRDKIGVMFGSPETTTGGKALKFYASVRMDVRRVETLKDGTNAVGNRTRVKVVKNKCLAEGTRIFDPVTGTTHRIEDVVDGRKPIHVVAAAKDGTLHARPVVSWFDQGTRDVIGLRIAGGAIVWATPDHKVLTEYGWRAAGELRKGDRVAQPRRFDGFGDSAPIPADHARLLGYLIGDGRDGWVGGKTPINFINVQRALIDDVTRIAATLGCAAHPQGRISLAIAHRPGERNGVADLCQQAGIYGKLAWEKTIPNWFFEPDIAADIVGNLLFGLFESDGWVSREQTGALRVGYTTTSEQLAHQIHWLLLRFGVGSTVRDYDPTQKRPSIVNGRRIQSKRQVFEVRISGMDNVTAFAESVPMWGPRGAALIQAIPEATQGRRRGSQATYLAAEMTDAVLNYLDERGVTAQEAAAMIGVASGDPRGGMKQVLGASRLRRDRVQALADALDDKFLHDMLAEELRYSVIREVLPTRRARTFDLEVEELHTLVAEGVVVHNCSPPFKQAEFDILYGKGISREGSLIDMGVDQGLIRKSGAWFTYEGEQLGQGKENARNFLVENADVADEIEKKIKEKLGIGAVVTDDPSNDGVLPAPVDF

Large T antigen = Large T antigen (Simian virus 40, UniProt P03070); type: functional, Betapolyomavirus macacae;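 further: Confirmatory-stage PubChem screen for compounds that inhibit SV40 T antigen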
Large T antigen, sequence (P03070 whole entry): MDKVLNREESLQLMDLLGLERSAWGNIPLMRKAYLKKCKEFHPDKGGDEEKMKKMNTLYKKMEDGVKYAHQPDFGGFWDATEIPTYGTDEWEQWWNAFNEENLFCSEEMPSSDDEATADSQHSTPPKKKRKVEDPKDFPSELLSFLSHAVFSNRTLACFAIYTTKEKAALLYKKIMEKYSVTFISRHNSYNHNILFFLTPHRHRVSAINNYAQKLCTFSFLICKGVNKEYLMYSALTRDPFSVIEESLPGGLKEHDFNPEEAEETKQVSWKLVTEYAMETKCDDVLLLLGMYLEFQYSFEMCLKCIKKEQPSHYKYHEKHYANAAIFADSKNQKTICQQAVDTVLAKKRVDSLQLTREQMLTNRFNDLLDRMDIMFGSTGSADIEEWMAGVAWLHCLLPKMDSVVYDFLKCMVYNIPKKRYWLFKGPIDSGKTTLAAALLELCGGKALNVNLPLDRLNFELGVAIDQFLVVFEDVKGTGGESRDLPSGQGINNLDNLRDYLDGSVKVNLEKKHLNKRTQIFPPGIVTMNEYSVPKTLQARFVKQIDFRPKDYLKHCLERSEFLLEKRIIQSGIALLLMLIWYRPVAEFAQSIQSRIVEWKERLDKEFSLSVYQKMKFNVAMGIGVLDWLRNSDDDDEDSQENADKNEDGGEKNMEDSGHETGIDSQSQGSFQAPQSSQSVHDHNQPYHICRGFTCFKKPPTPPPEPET

[6] = Shn3 3'UTR reporter inhibitors, dose response, cell-based, Clone20 osteoblasts, firefly luciferase, cherry-picked (AID 624132); type: functional;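 further: firefly luciferase luminescence from reporter carrying the Shn3 3'UTR in osteoblasts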
[7] = HepG2 cell cytotoxicity, dose response, cytotoxicity control for Shn3 inhibitor project, CellTiter-Glo, cherry-picked (AID 624134); type: functional, cell-based
[8] = control 3'UTR Renilla luciferase suppression, dose response, counter-screen for Shn3 inhibitor project, cell-based, Clone20-Shn3RL, cherry-picked (AID 624133); type: functional
[9] = ZM109 Env clade C HIV-1 fusion inhibitors, dose response, HeLa effector, CEM target cells, luciferase, cherry-pick (AID 652058); type: functional, cell-based
[10] = inhibitors of clade B AD8 Env fusion, dose response, cell-based, cherry-pick (AID 652062); type: functional;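 further: luciferase signal from cell-cell fusion driven by HIV-1 clade B AD8 Env; potency is for inhibitors of fusion seen as a drop in luminescence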
BJ [11] = assay: cytotoxicity toward BJ-TERT fibroblasts, dose response, cell-based, RAS-independent, luminescence (AID 1933); type: functional; details: Homo sapiens
BJ [12] = assay: cells; type: functional, cell-based; details: Homo sapiens
BJ [13] = assay: cytotoxicity toward BJ-TERT-LT-ST fibroblasts, dose response, cell-based, RAS-independent, luminescence (AID 1935); type: functional; details: Homo sapiens;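 further: BJ fibroblasts immortalized with TERT plus LT and ST oncogenes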
[14] = cytotoxicity toward DRD oncogenic fibroblasts, dose response, cell-based, non-viral oncogenic, luminescence (AID 1934); type: functional; details: Homo sapiens
INS1 = assay: beta cell apoptosis inhibitors, cytokine rescue, dose response, luminescence, retest (AID 449756); type: functional, cell-based; details: Rattus norvegicus;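 further: cell death triggered by IL-1 beta plus TNF-alpha plus IFN-gamma mixture; protective hits raise ATP signal compared with cytokine alone wells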
[15] = molecular target: T5, Ubiquitin-conjugating enzyme E2 N (Homo sapiens, UniProt P61088); type: functional;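 further: Dose-response confirmation in a TR-FRET assay detecting UBC13-driven polyubiquitin chain formation, inhibition measured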
T5 sequence (P61088 whole entry): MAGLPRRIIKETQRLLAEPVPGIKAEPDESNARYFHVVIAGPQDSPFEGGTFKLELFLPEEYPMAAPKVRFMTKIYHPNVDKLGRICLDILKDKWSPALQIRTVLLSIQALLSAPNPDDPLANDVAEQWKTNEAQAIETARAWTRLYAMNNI

[16] = NIH-3T3 fibroblast cytotoxicity, dose response, cytotoxicity control, cell-based, fluorescence, Alamar Blue, secondary assay (AID 2327); type: functional;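 further: NIH-3T3 mouse fibroblasts cultured with fluconazole at 8 µg/mL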
[17] = C. albicans growth with fluconazole, confirmation, fluorescence, retest (AID 2467); type: functional, cell-based
[18] = inhibitors of HIV Env-driven cell fusion, dose response, cherry-pick (AID 652057); type: functional, cell-based
[19] = Luminescence Cell-Based Dose Retest to Confirm Inhibitors of Cancer Stem Cells. [Related pubchem assays (depositor defined):AID2717, AID2721]; type: functional; details: Homo sapiens
Fatty acid synthase [20] = molecular target: T6, Fatty acid synthase (Homo sapiens, UniProt P49327); assay: FAS thioesterase domain inhibitors, dose response, biochemical, endpoint fluorescence intensity, uHTS hits (AID 624327); type: functional;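 further: fluorescence from hydrolysis of an O-methyl fluorescein acyl ester substrate by the enzyme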
T6 sequence (P49327 whole entry, the tested form may be a part): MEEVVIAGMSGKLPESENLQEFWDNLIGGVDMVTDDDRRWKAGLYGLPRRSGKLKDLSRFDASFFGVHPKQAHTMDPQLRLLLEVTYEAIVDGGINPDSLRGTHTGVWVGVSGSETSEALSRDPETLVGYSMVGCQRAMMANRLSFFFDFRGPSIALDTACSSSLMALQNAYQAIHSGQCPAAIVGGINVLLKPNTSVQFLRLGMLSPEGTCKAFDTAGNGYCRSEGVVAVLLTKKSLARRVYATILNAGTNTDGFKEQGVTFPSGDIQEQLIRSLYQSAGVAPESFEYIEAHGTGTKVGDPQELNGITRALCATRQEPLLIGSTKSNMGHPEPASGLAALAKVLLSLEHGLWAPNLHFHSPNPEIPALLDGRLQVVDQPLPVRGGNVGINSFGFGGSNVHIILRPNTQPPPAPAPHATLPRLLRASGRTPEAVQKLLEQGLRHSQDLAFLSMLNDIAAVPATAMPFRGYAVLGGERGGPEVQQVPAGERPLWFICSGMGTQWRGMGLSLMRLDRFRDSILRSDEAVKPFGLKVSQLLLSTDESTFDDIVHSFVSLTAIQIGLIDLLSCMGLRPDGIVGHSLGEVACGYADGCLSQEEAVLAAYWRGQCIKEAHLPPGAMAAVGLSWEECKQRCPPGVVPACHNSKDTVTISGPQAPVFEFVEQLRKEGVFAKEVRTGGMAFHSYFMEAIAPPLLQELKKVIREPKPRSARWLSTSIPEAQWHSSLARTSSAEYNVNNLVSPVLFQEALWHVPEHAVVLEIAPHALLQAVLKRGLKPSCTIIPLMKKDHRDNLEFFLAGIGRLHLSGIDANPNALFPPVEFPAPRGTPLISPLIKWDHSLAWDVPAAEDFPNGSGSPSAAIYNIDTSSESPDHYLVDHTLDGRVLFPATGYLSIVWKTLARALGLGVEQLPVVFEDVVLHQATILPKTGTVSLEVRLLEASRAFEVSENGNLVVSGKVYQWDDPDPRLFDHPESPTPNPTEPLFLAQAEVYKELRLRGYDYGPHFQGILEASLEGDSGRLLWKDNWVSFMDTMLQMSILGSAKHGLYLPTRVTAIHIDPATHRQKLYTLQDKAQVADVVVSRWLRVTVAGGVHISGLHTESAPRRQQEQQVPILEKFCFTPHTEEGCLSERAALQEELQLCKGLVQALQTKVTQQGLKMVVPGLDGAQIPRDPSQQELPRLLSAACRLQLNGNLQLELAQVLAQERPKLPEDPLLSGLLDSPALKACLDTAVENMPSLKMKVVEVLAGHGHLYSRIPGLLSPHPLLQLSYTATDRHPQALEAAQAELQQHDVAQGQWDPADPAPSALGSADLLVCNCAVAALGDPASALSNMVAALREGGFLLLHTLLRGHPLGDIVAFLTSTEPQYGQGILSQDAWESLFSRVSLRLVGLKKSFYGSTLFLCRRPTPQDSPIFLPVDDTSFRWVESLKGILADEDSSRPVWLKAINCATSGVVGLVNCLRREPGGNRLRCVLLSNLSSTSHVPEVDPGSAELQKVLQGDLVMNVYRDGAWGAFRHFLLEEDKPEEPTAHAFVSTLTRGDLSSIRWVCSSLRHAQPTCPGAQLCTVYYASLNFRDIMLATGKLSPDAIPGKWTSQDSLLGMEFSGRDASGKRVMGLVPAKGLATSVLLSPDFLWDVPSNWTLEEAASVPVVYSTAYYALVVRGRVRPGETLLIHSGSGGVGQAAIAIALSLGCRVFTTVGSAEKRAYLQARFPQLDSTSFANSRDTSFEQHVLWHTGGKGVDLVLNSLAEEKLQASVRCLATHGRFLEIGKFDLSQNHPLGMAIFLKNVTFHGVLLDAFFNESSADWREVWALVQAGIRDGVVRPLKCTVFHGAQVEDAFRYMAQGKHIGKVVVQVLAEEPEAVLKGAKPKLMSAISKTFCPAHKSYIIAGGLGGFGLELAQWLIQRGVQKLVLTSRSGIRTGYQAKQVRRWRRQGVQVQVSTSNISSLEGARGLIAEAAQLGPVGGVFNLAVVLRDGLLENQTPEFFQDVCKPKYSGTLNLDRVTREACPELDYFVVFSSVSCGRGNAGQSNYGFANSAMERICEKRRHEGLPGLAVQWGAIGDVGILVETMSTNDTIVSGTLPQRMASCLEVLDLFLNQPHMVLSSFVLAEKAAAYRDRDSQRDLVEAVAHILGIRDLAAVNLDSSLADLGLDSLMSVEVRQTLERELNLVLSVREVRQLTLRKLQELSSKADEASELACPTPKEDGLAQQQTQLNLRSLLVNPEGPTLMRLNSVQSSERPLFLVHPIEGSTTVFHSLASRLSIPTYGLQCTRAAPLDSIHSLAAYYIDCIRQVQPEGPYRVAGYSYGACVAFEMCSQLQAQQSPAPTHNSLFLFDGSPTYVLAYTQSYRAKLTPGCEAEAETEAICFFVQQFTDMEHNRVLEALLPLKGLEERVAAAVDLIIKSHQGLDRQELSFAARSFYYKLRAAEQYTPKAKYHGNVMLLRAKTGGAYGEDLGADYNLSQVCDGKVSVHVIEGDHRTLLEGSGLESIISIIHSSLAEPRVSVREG

Fatty acid synthase [21] = molecular target: T6, Fatty acid synthase; assay: FAS thioesterase domain inhibitors, dose response, biochemical, kinetic fluorescence intensity (AID 624326); type: functional;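 further: rate of fluorescence rise from hydrolysis of a fluorogenic O-methyl fluorescein ester substrate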

T1 sequence (P11940 whole entry): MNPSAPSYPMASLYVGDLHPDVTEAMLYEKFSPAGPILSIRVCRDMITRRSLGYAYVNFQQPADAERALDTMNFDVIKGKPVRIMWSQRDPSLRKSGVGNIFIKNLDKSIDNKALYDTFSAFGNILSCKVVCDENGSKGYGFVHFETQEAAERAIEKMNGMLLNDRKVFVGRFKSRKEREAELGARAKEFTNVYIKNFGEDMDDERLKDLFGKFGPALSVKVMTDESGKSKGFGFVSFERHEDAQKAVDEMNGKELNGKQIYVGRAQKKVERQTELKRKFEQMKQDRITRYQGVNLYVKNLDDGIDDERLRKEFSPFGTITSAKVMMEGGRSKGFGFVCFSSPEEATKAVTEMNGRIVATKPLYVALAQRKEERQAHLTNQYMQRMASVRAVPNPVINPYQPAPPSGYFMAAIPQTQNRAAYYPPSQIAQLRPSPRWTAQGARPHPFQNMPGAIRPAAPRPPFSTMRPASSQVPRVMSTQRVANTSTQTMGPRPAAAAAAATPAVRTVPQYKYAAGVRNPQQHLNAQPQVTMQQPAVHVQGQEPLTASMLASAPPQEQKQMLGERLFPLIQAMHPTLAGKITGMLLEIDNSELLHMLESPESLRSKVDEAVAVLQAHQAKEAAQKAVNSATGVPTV

CS(=O)(=O)Nc1cccc2cccnc12
IC50 (cells): 2.87 µM (active)

NS(=O)(=O)c1cccc2c1c([N+](=O)[O-])cc1nc(O)c(O)nc12
IC50 [1]: > 66 µM (inactive) | IC50 [2]: > 66 µM (inactive)

COc1cc2[nH]c(=S)n(NC(=O)c3ccccc3)c(=O)c2cc1OC
IC50 [1]: > 66 µM (inactive) | IC50 [2]: > 66 µM (inactive)

Cc1nnc(Sc2nc3ccccc3o2)c2ccccc12
AC50 [3]: 3.26 µM (active) | AC50 [4]: 18.4 µM (active) | IC50 [5]: 13.5 µM (active) | EC50 (Protein RecA): 1.28 µM (active)

COc1ccc(Cc2c(O)nc(SCC(=O)NC34CC5CC(CC(C5)C3)C4)nc2O)cc1
IC50 [1]: > 66 µM (inactive) | IC50 [2]: > 66 µM (inactive)

CC(C)c1ccc(C2CC(=O)N3CN(C)CSC3=C2C#N)cc1 (stereo not given)
IC50 (Large T antigen): 54.9 µM (active)

O=Cc1c(NCc2ccco2)nc2ccccn2c1=O
IC50 (cells): 40.4 µM (active)

COc1ccccc1OCC(=O)c1[nH]c(C)c(C(C)=O)c1C
AC50 [6]: 3.35 µM (active) | AC50 [7]: > 70 µM (inactive) | AC50 [8]: 3.81 µM (active) | AC50 [9]: 2.13 µM (active) | AC50 [10]: 46.4 µM (active)

N#CC(C#N)=C(Nc1ccc(F)cc1)SCc1cccc(F)c1
EC50 (BJ [11]): 13.1 µM (active) | EC50 (BJ [12]): 33.2 µM (active) | EC50 (BJ [13]): > 150 µM (inconclusive) | EC50 [14]: 29.3 µM (active) | IC50 [5]: 4.79 µM (active) | AC50 (INS1): 3.26 µM (active)

O=C1CC(c2ccccc2)CC(=O)C1Sc1ccc(Cl)cc1 (stereo not given)
IC50 [1]: > 66 µM (inactive) | IC50 [2]: > 66 µM (inactive)

Cc1ccc(S(=O)(=O)N2[C@@H](c3ccc(Cl)cc3)C(C(=O)O)=CC[C@H]2c2ccc(Cl)cc2)cc1
IC50 (Large T antigen): > 100 µM (active) | IC50 [5]: 5.01 µM (active)

Cc1nnc(NC(=O)C2c3ccccc3Oc3ccccc32)s1
IC50 [1]: > 66 µM (inactive) | IC50 [2]: > 66 µM (inactive)

c1ccc(C2(CN3CCNC[C@H]3Cc3cccc4ccccc34)CC2)cc1
IC50 [15]: > 20 µM (inactive)

COc1ccc2nc3oc(C(=O)NC4CCN(Cc5ccccc5)CC4)cc3cc2c1
IC50 [15]: > 20 µM (inactive)

Cc1ccc(C(N)=S)c(C)c1
IC50 [1]: > 66 µM (inactive) | IC50 [2]: > 66 µM (inactive)

c1csc(CNc2ncnc3sccc23)c1
EC50 [16]: > 160 µM (inconclusive) | EC50 [17]: 3.28 µM (active) | AC50 [6]: 1.8 µM (active) | AC50 [7]: 4.61 µM (active) | AC50 [8]: 4.77 µM (active) | AC50 [18]: 39.4 µM (active) | AC50 [9]: 46.1 µM (active) | AC50 [10]: 8.87 µM (active)

Cn1c(=O)c2nc(COc3ccccc3)[nH]c2n(C)c1=O
IC50 [1]: 33.5 µM (inactive) | IC50 [2]: 29.7 µM (inactive)

CO[C@@H](CN(C)S(=O)(=O)c1ccc(Cl)cc1)[C@@H](C)CN([C@H](C)CO)S(=O)(=O)c1cccc(Cl)c1
AC50 [18]: 1.25 µM (active) | AC50 [9]: 1.1 µM (active) | AC50 [10]: 19.5 µM (active)

CC(C)(C)OC(=O)NCCc1nnc(S(=O)(=O)Cc2ccc(Cl)cc2Cl)o1
AC50 [19]: 3.94 µM (active) | IC50 (cells): 30.1 µM (active) | AC50 [4]: 1.61 µM (active) | EC50 (Protein RecA): 4.66 µM (active) | IC50 (Fatty acid synthase [20]): 4.23 µM (active) | IC50 (Fatty acid synthase [21]): 6.42 µM (active)

CC(/C=N/n1c(S)nnc1-c1cccnc1)=C\c1ccccc1
IC50 (Large T antigen): 58.1 µM (active)

C/C(=N\NC(=O)Cn1cc([N+](=O)[O-])cn1)c1ccc(O)cc1
IC50 (Large T antigen): 54.5 µM (active)
